From publication PMC7071015, “Structure-Based Design, Synthesis and Bioactivity of a New Anti-TNFα Cyclopeptide” (Molecules, 2020)
Where a SMILES comes first, the peptide text is derived from it. Bridges are numbered along the chain shown (N, C = ends). Where no end group is shown, it is not given here.

How the values were obtained:
TNFα [1] = test system: TNFα; parameters: method as in PMID 7756262; conditions: K562 cells, 125I-labelled TNFα; cited from earlier work
TNFα [2] = conditions: cited from earlier work
Protocol: Small molecule with anti-TNFα activity with compact 3D conformations containing trifluoromethylphenyl indole and chromone moieties have previously been designed. These compounds bind with high affinity (IC50 = 13 μM) to a hydrophobic binding pocket formed by six tyrosine residues (Y59, Y119 and Y151 from chain A and B) at the interface of TNFα dimer. Alternative binding pockets that bind small molecules have also been identified from the predicted TNFα-TNFR1 complex and these involve the residues H66, L67 and L71 of TNFR1 and residues R82, F90 and F127 in TNFα [18]. Recently, a small ...

recombinant human TNFα = target: T1, recombinant human TNFα (Homo sapiens, UniProt P01375); assay: HEK-Blue TNFα sensor cell assay (NF-ĸB-induced SEAP reporter); assay type: cell-based
T1 construct: purchased InvivoGen
T1 sequence (P01375 77-233 limits assumed): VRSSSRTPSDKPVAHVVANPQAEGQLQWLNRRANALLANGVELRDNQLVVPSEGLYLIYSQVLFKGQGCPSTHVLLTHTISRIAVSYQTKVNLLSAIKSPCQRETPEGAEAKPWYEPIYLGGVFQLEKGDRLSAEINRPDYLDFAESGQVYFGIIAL
Protocol: In the assay, the cells are transfected with a secretory alkaline phosphatase reporter gene which is downstream of the NF-ĸB promoter and expressed in response to TNFα receptor activation. The alkaline phosphatase activity was then quantified by measuring the absorbance (λ = 620 nm) of coloured substrate. […] Activation of HEK-Blue TNFα cells by 1 ng/mL of human TNFα (InvivoGen) in the presence and absence of anti-hTNFα antibody (InvivoGen) were used as positive and negative controls in the anti-TNFα assay (Figure 3).
Peptides were dissolved in DMSO and solutions were diluted with the cell culture media so the final concentration of DMSO is 1%. Blank experiments with 1% DMSO were carried out.
TNFα sensor cells (HEK-Blue) were grown in Dulbecco’s Modified Eagle’s medium (DMEM) containing 4.5 g/L glucose and supplemented with 10% [v/v] heat-inactivated foetal bovine serum, 2 mM L-glutamine, 100 μg/mL normocin, 50 U/mL penicillin and 50 μg/mL streptomycin. Selective antibiotics added to the culture medium include 100 μg/mL zeocin and 1 μg/mL puromycin and avoided in initial cultures (first 2 passages). Maintenance cultures were kept in T-75 cell culture flasks and incubated in humidified incubator with 5% [v/v] […]
can then be quantified in cells supernatant (20 μL) by the reaction with 180 µL of QUANTI‐
Blue™, a reagent that turns from purple to blue in the presence of SEAP. Quantification of […]

HEK-Blue TNFα cells = conditions: 24 h, OD 540 nm, at the concentration used to test anti-TNFα activity, one duplicate
Protocol: Therefore, this can be used as preliminary data for further biological evaluations.
This assay was performed with one duplicate, and the error bars show standard error.
The Vybrant®® MTT assay (Thermo Fisher Scientific) was performed following the manufacturer protocol. In this assay, cell permeable tetrazolium dye (yellow) was […] in viable cells to yield the water-insoluble formazan (purple) after incubation with HEK-TNFα cells. Formazan was then solubilised and quantified by measuring the UV absorbance at 540 nm.

[3] = qualitative; reason for NMR in methanol-d3
TNFα production = conditions: stimulated monocytes; by promoting TNFα mRNA degradation; cited from earlier work
Description: (§1) A range of biologics targeting TNFα have been licensed for the treatment of various inflammatory diseases, such as rheumatoid arthritis and Crohn’s disease. Although these agents have high potency and specificity, they are limited by their high production costs and potential immunogenicity. […] Also, their large molecular weight and low oral stability means their administration is only feasible through injection [[12 ...

[4] = cited from earlier work
Description: as §1

[5] = test system: protein kinase 2 regulatory subunit (CK2β) / catalytic subunit interaction; conditions: cited from earlier work
Description: (§2) This was achieved by producing a cyclic peptide with higher target specificity compared to small molecules and low potential of immunogenicity when compared with biologics. Protein loops are often involved in the biomolecular recognition of proteins. Loop peptidomimetics have previously been introduced as a new class of bioactive agents. The ...

[6] = test system: menin-MLL protein–protein interaction; conditions: cited from earlier work
Description: as §2

[7] = target: recombinant human tumour necrosis factor alpha (TNFα) (human) (UniProt P01375)
recombinant human tumour necrosis factor alpha (TNFα) (human), sequence (P01375 77-233): as the sequence (P01375 77-233 limits assumed) above

Molecule: Cc1ccc(C(=O)Nc2ccc(S(=O)(=O)O)c3cc(S(=O)(=O)O)cc(S(=O)(=O)O)c23)cc1NC(=O)c1cccc(NC(=O)Nc2cccc(C(=O)Nc3cc(C(=O)Nc4ccc(S(=O)(=O)O)c5cc(S(=O)(=O)O)cc(S(=O)(=O)O)c45)ccc3C)c2)c1 [suramin]
- effect on TNFα oligomer (TNFα [1]): Deoligomerisation of TNFα

Molecule: Cc1ccc(C)c(Cn2c(CO)nc3ccccc32)c1 [UCB-6876]
- effect on TNFα trimer in co-crystal structure (TNFα [2]): change in the spatial arrangement of the TNFα trimer and a loss of its 3-fold symmetry

Molecule: CC(C)C[C@@H]1NC(=O)[C@H](CC(N)=O)NC(=O)[C@H](CCC(=O)O)NC(=O)[C@H](CO)NC(=O)[C@H](Cc2c[nH]c3ccccc23)NC(=O)[C@H](Cc2ccc(O)cc2)NC(=O)[C@H](Cc2c[nH]cn2)NC(=O)CNC(=O)[C@@H]2CCCN2C(=O)[C@H](CCC(N)=O)NC(=O)[C@H](Cc2ccccc2)NC1=O [compound 1] (cyclo(HYWSENLFQPG))
- concentration achieving inhibition of TNFα activity by 35% (recombinant human TNFα; 35% inhibition, 1 ng/mL recombinant human TNFα, 24 h, 1% DMSO, absorbance 620 nm, duplicates): 117.4 µM
- cytotoxicity (MTT) (HEK-Blue TNFα cells): no significant cytotoxicity
- solubility in water [3]: low solubility

Molecule: O=C1CCC(N2C(=O)c3ccccc3C2=O)C(=O)N1 (stereo not shown) [Thalidomide]
- effect on TNFα production (TNFα production): inhibits TNFα production

Molecule: infliximab: large molecule biologic targeting TNFα
- adverse reaction [4]: associated with development of infusion reaction

Molecule: cyclo-GCRLYGFKIHGCG [cyclic peptide derived from the regulatory subunit (CK2β) of protein kinase 2]
- inhibition of CK2β interaction with catalytic subunit [5]: inhibits the interaction with the associated catalytic subunit

Molecule: MCP-1
- inhibition of menin-MLL interaction [6]: inhibitor of the menin-MLL protein–protein interaction

Molecule: CC(C)C[C@@H]1NC(=O)[C@H](Cc2ccc(O)cc2)NC(=O)[C@H](CCC(N)=O)NC(=O)[C@H](CO)NC(=O)[C@H](Cc2c[nH]c3ccccc23)NC(=O)[C@@H](NC(=O)[C@@H](N)Cc2ccc(O)cc2)CSSC[C@@H](C(=O)N[C@@H](Cc2ccc(O)cc2)C(=O)O)NC1=O [WP9QY]
- IC50 (recombinant human TNFα): 122 µM
- cytotoxicity (MTT) (HEK-Blue TNFα cells): no significant cytotoxicity

B1: WP9QY (peptide)
peptide: YCWSQYLCY
modifications: disulfide 2-8 (inferred)
- concentration that inhibits TNFα activity by 35% in HEK-Blue TNFα sensor cells (NF-kB-driven secreted alkaline phosphatase), 1 ng/mL human TNFα, 24 h; the pair said to be blocked is TNFα with TNFR-1 [7]: 97.2 µM

B2: cyclic peptide 1 (WP9 loop peptidomimetic 1) (peptide)
peptide: HYWSENLFQPG
modifications: cyclised head to tail (N- to C-) via a proline-glycine linker
- concentration that inhibits TNFα activity by 35% in HEK-Blue TNFα sensor cells (NF-kB-driven secreted alkaline phosphatase), 1 ng/mL human TNFα, 24 h; the pair said to be blocked is TNFα with TNFR-1 [7]: 117 µM
